Measured values from patent US7829087B2, “Methods of treating cognitive impairment” (Elan Pharmaceuticals, Inc., priority 2001, dated 2010).
Several values for one entry are separate records, joined by “and”; a condition that tells them apart may be missing. Identical values can stand only once.

Columns and labels:
LTP in the CA1 area = test: Aβ-mediated inhibition of LTP in the CA1 in vivo; parameters: species or system rat
LTP in the dentate gyrus = test: Aβ-mediated inhibition of LTP in the dentate gyrus in vitro (hippocampal slices, field EPSPs); type: cell-based, rat; conditions: for Suppression of Aβ inhibition of LTP in vitro (figure legends): dentate gyrus in vitro
Procedure: All experiments were carried out on transverse slices of the rat hippocampus (males, age 3-4 weeks, weight 40-80 g) or mice (males, age 3-4 months). The brains were rapidly removed after decapitation and placed in cold oxygenated (95% O2/5% CO2) media. Slices were cut at a thickness of 350 μm using an Intracell Plus 1000 and placed in a storage container containing oxygenated medium at room temperature (20-22° C.) for 1 hr. The slices were then transferred to a recording chamber for submerged slices and continuously superfused at a rate of 5-6 ml/min at 30-32° C. The control media contained (in mM): NaCl, 120; KCl 2.5, NaH2PO4, 1.25; NaHCO3 26; MgSO4, 2.0; CaCl2, 2.0; D-glucose 10. All solutions contained 100 μM picrotoxin (Sigma) to block GABAA-mediated activity.
Standard electrophysiological techniques were used to record field potentials. Presynaptic stimulation was applied to the medial perforant pathway of the dentate gyrus using a bipolar insulated tungsten wire electrode, and field excitatory postsynaptic potentials (EPSPs) were recorded at a control test frequency of 0.033 Hz from the middle one-third of the molecular layer of the dentate gyrus with a glass microelectrode. The inner blade of the dentate gyrus was used in all studies. In each experiment, an input-output curve (afferent stimulus intensity versus EPSP amplitude) was plotted at the test frequency. For all experiments, the amplitude of the test EPSP was adjusted to one-third of maximum (˜1.2 mV). LTP was evoked by 8 trains of high frequency stimulation (HFS), each of 8 stimuli at 200 Hz, inter-train interval 2s, with the stimulation voltage increased during the HFS so as to evoke an initial EPSP of the train of double the normal test EPSP amplitude. Control (vehicle alone) and experimental levels of LTP were measured on slices prepared from the same hippocampus. Recordings were analysed using p-CLAMP (Axon Instruments, CA, USA). The values reported herein were the means±S.E.M. for n slices. Two-tailed Student's t-test was used for statistical comparison.
Synthetic Aβ (1-42) was obtained from Bachem. For the in vitro experiments, synthetic Aβ1-42 was prepared as a stock solution of 50 μM in ammonium hydroxide (0.1%), stored at −20° C., and then added to physiological medium immediately prior to each experiment. For the in vivo experiments, synthetic Aβ(1-42) (Bachem) was re-suspended in ice-cold milliQ water or Teplow. An aliquot was removed and centrifuged at 100,000 g for 3 h, conditions known to pellet fibrils and protofibrils (Klyubin et al., 2004).
The following integrin-αv antibodies (all IgG1 isotype) were used in the studies: 18C7, 17E6 and 20A9 (all from Calbiochem). The control antibodies used were 7H10, an IgG2a mouse antibody against human ICAM-1 and 27/1, an IgG1 isotype. Other compounds used were echistatin (Source), SM256 (3-[1-[3-(N-imidazol-2-ylamino)propyl]indazol-5-ylcarbonylamino]-2(S)-(2,4,6-trimethylbenzenesulfonylamino)propionic acid trifluoroacetate) which was prepared by Elan Pharmaceuticals (recoded as ELN 151993) according to the methods of Van Maes et al, 1994, superfibernectin (Sigma) and phalloidin (Calbiochem). In the in vivo experiments, SM256 was prepared for i.p administration in a suspension of Tween 80 (Sigma) in saline (15% v/v).

Human cortical neurons = test: Amylin two component toxicity; type: cell-based; conditions: seed amylin 1 hour, then soluble amylin; toxicity after 1 day
Procedure: Seed or aggregated amylin (1 mM) from CPR, Inc. (641-80, lot NG-0213) was made by adding 200 μl water/mg powder and then aging the solution for three days at 37° C. Soluble amylin (5 mM) was prepared by adding 40 μl DMSO/mg powder and sonicating the mixture for 30 minutes in a water bath. Both stock solutions were aliquoted and frozen until ready for use. Soluble amylin stock was diluted to 20 μM in culture medium just prior to use and filtered through an Amicon 30 filter that had been pre-washed with water. Filtered material was then diluted to its appropriate concentration.
Human cortical neurons (at 125,000 cells/96 well) were treated for 1 hour with seed amylin at 5 μM, 100 μl/well. Cells were aspirated and soluble amylin was added back at 5 μM per 100 μl/well. For compound studies, 50 μl of 2× compound was added before adding the soluble amylin.

[1] = test system: human cortical cultures (HCC); test: Aβ neurotoxicity in human cortical neurons (alamar blue); type: cell-based; conditions: for Maximal inhibition of toxicity (%): Aβ neurotoxicity in HCC, 3 days; for Inhibition of Aβ neurotoxicity (in words): HCC
Procedure: (§1) Tissue culture plates were coated with polyethyleneimine (PEI) in 150 mM sodium borate, pH 8.5, and incubated overnight at room temperature. Prior to adding cells, the wells were washed with PBS and Minimal Essential Media (MEM with 10% FBS) was added until cells were ready for plating. Human fetal cerebral cortex (E13-E16) was rinsed with Hank's Balanced Salt Solution (HBSS). Tissue was triturated in 1 mg of DNAse in HBSS. This suspension was filtered through a 100 micron nylon cell strainer and spun at 250×g for 5 minutes. The cells were resuspended in trypsin and incubated at 37° C. for 20 minutes. Modified Minimal Essential Media (MMEM with 10% FBS and 1 mg of DNase) was added and the cells were resuspended; then collected again by centrifugation. Cells were resuspended in MMEM containing B27, and plated in washed PEI-coated plates at 125,000 cells/well in 96 well plates or at 2.5 million cells/well in 6 well plates. The human cortical cultures (HCC) were incubated for 3 weeks with biweekly medium exchanges prior to treatment.
(§2) Aβ was generated by adding double distilled water (ddH2O) to Aβ to make up a 1 mM stock. This was aged for 3 days at 37° C., aliquoted, and stored frozen at −20° C. Soluble Aβ was made by adding DMSO to Aβ to make a 7.5 mM stock, sonicating for 30 minutes, aliquoting, and freezing at −20° C. Neurotoxic Aβ was generated by adding ddH2O to Aβ, aliquoting, and freezing at −20° C.
HCC were pretreated with antibodies or ligands for 30 minutes in neuronal medium (MEM) supplemented with glutamine and penicillin/streptomycin (basal media). One micromolar Aβ in basal medium was added for 1 hour. The medium was removed and the HCC were treated with antibodies or ligands and 20 μM soluble Aβ in basal medium for 3 days. At three days, the toxicity was determined by incubating in 10% alamar blue in basal medium for two hours. Fluorescence levels were measured relative to control and Aβ treated wells in triplicate.

[2] = test system: Aβ meshwork in human cortical cultures (HCC); test: Aβ meshwork formation on human cortical cultures (Aβ immunofluorescence); type: cell-based; conditions: for Inhibition of Aβ meshwork formation (in words): HCC
Procedure: as §1, §2
HCC treated with Aβ for 72 hours were fixed with 4% paraformaldehyde, stained with 5 μg/ml anti-Aβ-3D6-biotin, and visualized with 10 μg/ml streptavidin-FITC (Jackson).

With `Cc1cc(C)c(S(=O)(=O)N[C@@H](CNC(=O)c2ccc3c(cnn3CCCNc3ncc[nH]3)c2)C(=O)O)c(C)c1.O=C(O)C(F)(F)F` [SM256, 3-[1-[3-(N-imidazol-2-ylamino)propyl]indazol-5-ylcarbonylamino]-2(S)-(2,4,6-trimethylbenzenesulfonylamino)propionic acid trifluoroacetate] as the compound, how does the “Suppression of soluble Aβ inhibition of LTP in vivo (figure legends)” value (LTP in the CA1 area; CA1 area in vivo) read?
Its value is “suppresses inhibition of LTP by soluble Aβ”.

What about the “LTP after SM256 plus soluble Aβ” value (LTP in the CA1 area; SM256 40 mg in 1.2 ml vehicle i.p., Aβ 50 pmol i.c.v. 40 min later, 10 min before HFS) of the same compound?
Its value is 133±5%.

What about the “Effect of SM256 alone on baseline synaptic transmission or control LTP” value (LTP in the CA1 area; SM256 40 mg in 1.2 ml vehicle, i.p.) of the same compound?
The value was “no discernible effect on baseline synaptic transmission or control LTP”.

What about the “LTP in the presence of Aβ plus SM256” value (LTP in the dentate gyrus; SM256 10 μl M plus Aβ, n=5) of the same compound?
The value was 129±5%.

And the “LTP with SM256 alone” value (LTP in the dentate gyrus; SM256 10 μl M, no Aβ)?
Its value is 148±7%.

And the “Suppression of Aβ inhibition of LTP in vitro (figure legends)” value (LTP in the dentate gyrus)?
Its value is “suppresses inhibition of LTP by Aβ”.

With `C=C1[C@@H](C)[C@H]2[C@H](Cc3ccccc3)NC(=O)[C@]23[C@H](OC(C)=O)/C=C/[C@@](C)(O)C(=O)[C@@H](C)C/C=C/[C@H]3[C@@H]1O` [cytochalasin D] as the compound, how does the “Protection against amylin two component toxicity (in words)” value (Human cortical neurons) read?
Its value is “amylin two component toxicity is further inhibited”.

“Aβ: Synthetic Aβ (1-42) from Bachem, used to inhibit LTP” was tested. Which “LTP (% baseline) in the presence of soluble fibril-free Aβ” value (LTP in the CA1 area; Aβ 50 pmol in 5 μl i.c.v., 10 min prior to HFS, 3 h post-HFS, anaesthetized rats) did it give?
The value was 105±5%.

What about the “LTP after peripheral vehicle followed by central injection of Aβ” value (LTP in the CA1 area; vehicle i.p., Aβ 50 pmol i.c.v.) of the same compound?
The value was 103±10%.

What about the “LTP (EPSP, % baseline) in the presence of Aβ alone” value (LTP in the dentate gyrus; Aβ 500 nM, 1 h post-HFS, dentate gyrus slices) of the same compound?
The value was 105±3 % baseline and 105±6 % baseline and 103±3 % baseline.

How did the “Maximal inhibition of toxicity (%)” value [1] turn out when “Fibronectin: αvβ1 integrin ligand, large multidomain glycoprotein” was run?
Its value is 32%.

And the “Inhibition of Aβ neurotoxicity (in words)” value [1]?
The value was “capable of inhibiting Aβ meshwork formation and neurotoxicity”.

And the “Meshwork Inhibition” value ([2]; Aβ meshwork on HCC, Table 1)?
The value was “Yes”.

What about the “Inhibition of Aβ meshwork formation (in words)” value [2] of the same compound?
The value was “capable of inhibiting Aβ meshwork formation and neurotoxicity”.

Laminin was tested. Which “Maximal inhibition of toxicity (%)” value [1] did it give?
The value was 20%.

What about the “Inhibition of Aβ neurotoxicity (in words)” value [1] of the same compound?
Its value is “not capable of inhibiting Aβ meshwork or neurotoxicity”.

And the “Inhibition of Aβ meshwork formation (in words)” value [2]?
Its value is “not capable of inhibiting Aβ meshwork or neurotoxicity”.

“echistatin (QCESGPCCRNCKFLKEGTICKRARGDDMDDYCNGKTCDCPRNPHKGPAT)” was tested. Which “Suppression of Aβ inhibition of LTP in vitro (figure legends)” value (LTP in the dentate gyrus) did it give?
The value was “suppresses inhibition of LTP by Aβ”.

And the “LTP in the presence of Aβ plus echistatin” value (LTP in the dentate gyrus; echistatin 50 nM plus Aβ, n=5)?
The value was 143±6%.

What about the “LTP with echistatin alone” value (LTP in the dentate gyrus; echistatin 50 nM, no Aβ) of the same compound?
The value was 158±5%.
